Measurements from patent US8986696B2, “Trans-capsular administration of p38 map kinase inhibitors into orthopedic joints” (DePuy Mitek, Inc., priority 2007, dated 2015).

Tests used:
[1] = system: injured cartilage explants; assay type: cell-based
From the text: The device comprises a vertical rail that guides a sliding weight from 0.1 kg to 3 kg directly onto a force transducer which is situated at the bottom of the device. A sphere-shaped 2 mm indenter resting on a specimen is located at the bottom of the vertical rail. The indenter is held by a stop screw. The specimen is rigidly attached to a tissue holder underneath the indenter, to avoid side movements, the specimen is rigidly attached to the tissue holder. In this manner, the force transducer transduces a force indirectly onto the specimen. Adjusting the weight of a mass and height from which the mass drops varies the magnitude of the intended impact. For example, a weight mass (e.g., […]) held by a weight holder can be released from a height of e.g., 36 cm and dropped onto the force transducer.

[2] = system: rabbit anterior cruciate ligament transection (ACLT) model of osteoarthritis; test: ACLT model pilot study, JNJ 3026582 (Example VI); assay type: in vivo
Procedure: New Zealand white rabbits (male, six to eight pounds) were anesthetized with ketamine (17 mg/kg) and xylazine (2.5 mg/kg). Supplementation was given during surgery, if needed, with an additional intramuscular injection of ketamine (35 mg/kg) and xylazine (5 mg/kg). The animals were given buprenorphine (0.01-0.05 mg/kg) for analgesia via a subcutaneous injection. The buprenorphine was administered every twelve hours for seventy-two hours. After induction of anesthesia, the right leg was clipped free of hair using electric animal clippers. The area around the site of surgery was scrubbed with chlorhexidine diacetate, rinsed with alcohol, dried, and painted with an aqueous iodophor solution of 1% available iodine and surgery was prepared using aseptic technique. In the right limb of each animal, the anterior cruciate ligament (ACL) was transected. A medial parapatellar incision was made and the patella was dislocated. The knee was flexed and the ACL visualized. A scalpel blade was positioned behind the ACL and brought anteriorly, thereby cutting the ACL while protecting the posterior cruciate ligament. The patella was returned to the normal anatomic position. The wound was closed in layers.
Following surgery, the animals were left untreated for six weeks. After six weeks, a series of five injections of the test compound were injected intra-articularly once weekly.
The animals were euthanized six weeks after initiation with an intravenous injection of pentobarbital (60 mg/kg). […] Immediately following euthanasia, gross observations of the knee joints were made and any abnormality was recorded. The joints were analyzed for disease state in the trochlear groove, the femoral condyles and the tibial plateau. Pathological assessments were performed on the sectioned tissue. Condylar structure, cellularity, presence of GAG and presence of cartilage were evaluated.
Sterile formulations of JNJ 3026582 (RWJ 67657) were prepared by gamma irradiation (1.5 mRAD) on dry ice. DMSO was sterile filtered and the remaining formulations were prepared aseptically. Specifically, 11.5 mg of JNJ 3026582 (RWJ 67657) was dissolved in 4 mL DMSO and the solution was thoroughly mixed with 5 mL of ARTHREASE® (Lot: 11840812) (Biotechnology General (Israel) Ltd.). The final concentration of JNJ 3026582 (RWJ 67657) in the formulation was 1.3 μg/μL and was considered the high dose. The mid dose was made by a 1:10 dilution of the high dose. The low dose was created in the same fashion as the mid dose i.e., by a 1:10 dilution of the mid dose.
A total of four rabbits (n=4) underwent ACLT of the right limb according to the ACLT model described above.
As discussed above, each formulation was injected once per week for five weeks. 160 μI was injected each time via a 26G (gauge) needle. The vehicle for the formulation was ARTHREASE® (Bio-Technology General (Israel) Ltd.).
At the time of sacrifice, the following parameters were evaluated grossly (the scale follows in parenthesis):
Each parameter was given a score. The combination of all parameters gave a Total Score. A higher score indicates more damage to the joint. The most clinically relevant parameters are discussed in detail below.

JNK = JNK inhibition; assay type: biochemical
p38α MAP kinase = p38α MAP kinase (Homo sapiens, UniProt Q16539); test: p38α MAP kinase enzyme inhibition; assay type: biochemical
Chain of p38α MAP kinase (Q16539 whole entry): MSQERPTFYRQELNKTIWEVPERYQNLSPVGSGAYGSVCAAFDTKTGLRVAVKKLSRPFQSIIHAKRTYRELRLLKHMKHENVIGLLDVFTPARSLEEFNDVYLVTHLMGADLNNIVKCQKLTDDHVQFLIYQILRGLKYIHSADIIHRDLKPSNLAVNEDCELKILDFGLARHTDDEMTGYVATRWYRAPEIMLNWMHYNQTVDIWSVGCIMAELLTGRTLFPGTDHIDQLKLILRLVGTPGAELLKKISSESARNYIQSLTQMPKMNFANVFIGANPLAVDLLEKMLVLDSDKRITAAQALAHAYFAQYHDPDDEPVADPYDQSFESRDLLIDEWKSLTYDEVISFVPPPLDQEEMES

[3] = molecular target: inactivated p38 MAP kinase (Homo sapiens, UniProt Q16539); test: binding to inactivated p38 MAP kinase; details: read-out: binds to inactivated p38 MAP kinase, Kd
Chain of inactivated p38 MAP kinase (Q16539 whole entry): as above

COX1 = COX1 (Homo sapiens, UniProt P23219); test: COX1 inhibition; assay type: biochemical
Chain of COX1 (P23219 24-599): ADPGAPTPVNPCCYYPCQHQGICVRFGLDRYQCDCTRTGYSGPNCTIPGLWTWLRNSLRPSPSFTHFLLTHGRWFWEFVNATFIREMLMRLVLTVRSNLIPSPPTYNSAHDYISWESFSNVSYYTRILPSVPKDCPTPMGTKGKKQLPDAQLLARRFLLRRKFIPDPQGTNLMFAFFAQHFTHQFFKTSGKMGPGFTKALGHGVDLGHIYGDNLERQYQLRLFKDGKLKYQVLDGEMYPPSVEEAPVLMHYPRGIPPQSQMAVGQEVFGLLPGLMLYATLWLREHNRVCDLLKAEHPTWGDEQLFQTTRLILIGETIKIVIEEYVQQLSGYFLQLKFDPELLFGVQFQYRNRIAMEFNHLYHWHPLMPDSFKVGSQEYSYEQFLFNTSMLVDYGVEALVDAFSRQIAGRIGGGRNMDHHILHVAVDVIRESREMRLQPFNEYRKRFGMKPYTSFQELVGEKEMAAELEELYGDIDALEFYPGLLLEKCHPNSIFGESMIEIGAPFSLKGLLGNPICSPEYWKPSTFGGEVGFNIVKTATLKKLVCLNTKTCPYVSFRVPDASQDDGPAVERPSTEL

COX2 = COX2 (Homo sapiens, UniProt P35354); test: COX2 inhibition; assay type: biochemical
Chain of COX2 (P35354 18-604): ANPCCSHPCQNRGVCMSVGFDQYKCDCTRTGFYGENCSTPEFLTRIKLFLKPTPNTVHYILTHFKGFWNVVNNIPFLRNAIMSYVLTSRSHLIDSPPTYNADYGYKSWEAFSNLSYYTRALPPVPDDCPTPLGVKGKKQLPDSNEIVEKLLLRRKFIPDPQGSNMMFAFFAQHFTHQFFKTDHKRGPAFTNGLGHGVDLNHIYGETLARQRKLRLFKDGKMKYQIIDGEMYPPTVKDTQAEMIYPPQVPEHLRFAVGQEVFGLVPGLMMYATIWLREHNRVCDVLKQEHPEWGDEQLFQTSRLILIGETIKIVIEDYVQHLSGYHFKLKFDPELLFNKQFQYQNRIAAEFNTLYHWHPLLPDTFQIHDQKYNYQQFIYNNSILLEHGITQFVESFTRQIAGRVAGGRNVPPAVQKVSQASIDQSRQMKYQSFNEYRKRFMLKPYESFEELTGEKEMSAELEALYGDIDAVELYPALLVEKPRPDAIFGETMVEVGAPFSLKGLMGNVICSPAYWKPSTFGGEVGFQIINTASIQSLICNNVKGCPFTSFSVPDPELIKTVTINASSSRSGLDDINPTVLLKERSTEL

CC(=O)Oc1cccc2c1C(=O)c1c(OC(C)=O)cc(C(=O)O)cc1C2=O [Diacerein, reference compound]
cytotoxicity (LDH, words) [1]: tolerant

OCCC#Cc1nc(-c2ccc(F)cc2)c(-c2ccncc2)n1CCCc1ccccc1 [JNJ 3026582 (RWJ 67657), 4-[4-(4-fluorophenyl)-1-(3-phenylpropyl)-5-(4-pyridinyl)-1H-imidazol-2-yl]-3-butyn-1-ol]
Appearance of Meniscus Lateral, mean score ([2]; High 50 μg/kg): 2.00
Appearance of Meniscus Medial, mean score ([2]; High 50 μg/kg): 2.25
Appearance of Patella, mean score ([2]; High 50 μg/kg): 1.25
Femoral Condyle Presence of Clefts, mean score ([2]; High 50 μg/kg): 0
Tibial Plateau (Lateral) # of Osteophytes, mean score ([2]; High 50 μg/kg): 2.00
Tibial Plateau (Lateral) Depth of Erosion, mean score ([2]; High 50 μg/kg): 2.06
Tibial Plateau (Lateral) Presence of Clefts, mean score ([2]; High 50 μg/kg): 0
Tibial Plateau (Lateral) Surface Area Erosion, mean score ([2]; High 50 μg/kg): 2.50
Tibial Plateau (Medial) # of Osteophytes, mean score ([2]; High 50 μg/kg): 1.63
Tibial Plateau (Medial) Depth of Erosion, mean score ([2]; High 50 μg/kg): 1.94
Tibial Plateau (Medial) Presence of Clefts, mean score ([2]; High 50 μg/kg): 0
Tibial Plateau (Medial) Surface Area Erosion, mean score ([2]; High 50 μg/kg): 2.50
Trochlear Groove # of Osteophytes, mean score ([2]; High 50 μg/kg): 3.00
Trochlear Groove Erosion of Cartilage, mean score ([2]; High 50 μg/kg): 1.25
Trochlear Groove Osteophyte Size, mean score ([2]; High 50 μg/kg): 3.00
Trochlear Groove Thickening, mean score ([2]; High 50 μg/kg): 0.25
Appearance of Meniscus Lateral, mean score ([2]; Low 0.5 μg/kg): 1.25
Appearance of Meniscus Medial, mean score ([2]; Low 0.5 μg/kg): 1.25
Appearance of Patella, mean score ([2]; Low 0.5 μg/kg): 0.50
Femoral Condyle Presence of Clefts, mean score ([2]; Low 0.5 μg/kg): 0
Tibial Plateau (Lateral) # of Osteophytes, mean score ([2]; Low 0.5 μg/kg): 1.75
Tibial Plateau (Lateral) Depth of Erosion, mean score ([2]; Low 0.5 μg/kg): 2.13
Tibial Plateau (Lateral) Presence of Clefts, mean score ([2]; Low 0.5 μg/kg): 0
Tibial Plateau (Lateral) Surface Area Erosion, mean score ([2]; Low 0.5 μg/kg): 2.00
Tibial Plateau (Medial) # of Osteophytes, mean score ([2]; Low 0.5 μg/kg): 1.50
Tibial Plateau (Medial) Depth of Erosion, mean score ([2]; Low 0.5 μg/kg): 0.50
Tibial Plateau (Medial) Presence of Clefts, mean score ([2]; Low 0.5 μg/kg): 0
Tibial Plateau (Medial) Surface Area Erosion, mean score ([2]; Low 0.5 μg/kg): 0.25
Trochlear Groove # of Osteophytes, mean score ([2]; Low 0.5 μg/kg): 3.00
Trochlear Groove Erosion of Cartilage, mean score ([2]; Low 0.5 μg/kg): 1.00
Trochlear Groove Osteophyte Size, mean score ([2]; Low 0.5 μg/kg): 3.00
Trochlear Groove Thickening, mean score ([2]; Low 0.5 μg/kg): 0.50
Appearance of Meniscus Lateral, mean score ([2]; Mid 5 μg/kg): 1.00
Appearance of Meniscus Medial, mean score ([2]; Mid 5 μg/kg): 2.5
Appearance of Patella, mean score ([2]; Mid 5 μg/kg): 1.38
Femoral Condyle Presence of Clefts, mean score ([2]; Mid 5 μg/kg): 0
Tibial Plateau (Lateral) # of Osteophytes, mean score ([2]; Mid 5 μg/kg): 2.25
Tibial Plateau (Lateral) Depth of Erosion, mean score ([2]; Mid 5 μg/kg): 0.88
Tibial Plateau (Lateral) Presence of Clefts, mean score ([2]; Mid 5 μg/kg): 0
Tibial Plateau (Lateral) Surface Area Erosion, mean score ([2]; Mid 5 μg/kg): 2.25
Tibial Plateau (Medial) # of Osteophytes, mean score ([2]; Mid 5 μg/kg): 2.00
Tibial Plateau (Medial) Depth of Erosion, mean score ([2]; Mid 5 μg/kg): 1.13
Tibial Plateau (Medial) Presence of Clefts, mean score ([2]; Mid 5 μg/kg): 0
Tibial Plateau (Medial) Surface Area Erosion, mean score ([2]; Mid 5 μg/kg): 2.00
Trochlear Groove # of Osteophytes, mean score ([2]; Mid 5 μg/kg): 3.00
Trochlear Groove Erosion of Cartilage, mean score ([2]; Mid 5 μg/kg): 1.63
Trochlear Groove Osteophyte Size, mean score ([2]; Mid 5 μg/kg): 3.00
Trochlear Groove Thickening, mean score ([2]; Mid 5 μg/kg): 0.75
All Cartilage Effects (0-38), average score ([2]; high dose 50 μg/kg): 19.19
All Condylar Effects (0-18), average score ([2]; high dose 50 μg/kg): 8.69
All Meniscal Effects (0-6), average score ([2]; high dose 50 μg/kg): 4.25
Total Score (0-59), average ([2]; high dose 50 μg/kg): 34.31
lateral femoral condyle % surface area erosion, average score ([2]; high dose 50 μg/kg): 2.5
medial femoral condyle % surface area erosion, average score ([2]; high dose 50 μg/kg): 2.25
All Cartilage Effects (0-38), average score ([2]; low dose 0.5 μg/kg): 12.75
All Condylar Effects (0-18), average score ([2]; low dose 0.5 μg/kg): 6.38
All Meniscal Effects (0-6), average score ([2]; low dose 0.5 μg/kg): 2.50
Total Score (0-59), average ([2]; low dose 0.5 μg/kg): 25.00
lateral femoral condyle % surface area erosion, average score ([2]; low dose 0.5 μg/kg): 1.23
medial femoral condyle % surface area erosion, average score ([2]; low dose 0.5 μg/kg): 1.5
All Cartilage Effects (0-38), average score ([2]; mid dose 5 μg/kg): 14.50
All Condylar Effects (0-18), average score ([2]; mid dose 5 μg/kg): 5.88
All Meniscal Effects (0-6), average score ([2]; mid dose 5 μg/kg): 3.50
Total Score (0-59), average ([2]; mid dose 5 μg/kg): 29.63
lateral femoral condyle % surface area erosion, average score ([2]; mid dose 5 μg/kg): 0.75
medial femoral condyle % surface area erosion, average score ([2]; mid dose 5 μg/kg): 1.63

C[C@H](Nc1nccc(-c2c(-c3ccc(F)cc3)nc3nc(N)ccn23)n1)c1ccccc1 [JNJ 7583979 (RWJ 351958)]
IC50 (JNK): 12 nM

CC(=O)N1CCN(c2c(-c3ccncc3)c(-c3ccc(F)cc3)c(C#N)n2C)CC1 [JNJ 17089540 (RWJ 669307)]
IC50 (p38α MAP kinase): 2000 nM
Kd [3]: 100 nM
IC50 (COX1): > 10000 nM
IC50 (COX2): > 10000 nM
